{"source": "paper PMC8274595", "about": "“Mechanism through Which Retrocyclin Targets Flavivirus Multiplication” (Journal of Virology, 2021)", "key": {"JEV": {"test_system": "JEV", "type": "cell-based, Japanese encephalitis virus (JEV)", "conditions": "50 μM RC-101, coadministration, BHK-21 cells"}, "MR766 strain": {"test_system": "MR766 strain", "assay": "Time-of-addition assay, ZIKV MR766 posttreatment", "type": "cell-based, Zika virus (ZIKV)", "conditions": "Vero cells, RC-101 40 μM added 1 h postinfection for 71 h, MOI 0.1, plaque assay"}, "ZIKV": {"test_system": "ZIKV", "assay": "Time-of-addition assay, ZIKV (PRVABC 59 and MR766)", "type": "cell-based, Zika virus (ZIKV)"}, "JEV Q258A variant": {"test_system": "JEV Q258A variant", "type": "cell-based, Japanese encephalitis virus (JEV)", "conditions": "coadministration, BHK-21 cells, Western blot and plaque assay"}, "ZIKV MR766": {"test_system": "ZIKV MR766", "assay": "Plaque assay, ZIKV MR766 virus production", "type": "cell-based, Zika virus (ZIKV)", "conditions": "additional cell line U251 used, supernatant 71 h postinfection"}, "ZIKV PRVABC 59": {"test_system": "ZIKV PRVABC 59", "assay": "Plaque assay, ZIKV PRVABC 59 virus production", "type": "cell-based, Zika virus (ZIKV)", "conditions": "100 μM, additional cell line U251 used, supernatant 47 h postinfection"}, "Vero cells": {"test_system": "Vero cells", "conditions": "up to 100 μM, 72 h, CCK-8 assay"}, "DE mutant DIII": {"target": "T1, DE mutant DIII (Japanese encephalitis virus, UniProt P27395, N661A/S658A/S659A/T657A)", "T1 construct": "DE loop mutant DIII (B), and bovine serum albumin (BSA) (C) were immobilized onto biosensors; pET-22b(+) normally gives a C-terminal His6); made in house", "assay": "Binding affinity, biolayer interferometry, DE mutant DIII", "parameters": "species or system Japanese encephalitis virus (JEV)", "conditions": "relative to WT DIII"}, "JEV NS3": {"test_system": "JEV NS3", "type": "cell-based, Japanese encephalitis virus (JEV)", "conditions": "BHK-21 cells"}, "JEV AT31 [1]": {"test_system": "JEV AT31", "assay": "Viral titer reduction (plaque) assay, JEV in BHK-21 cells", "type": "cell-based, Japanese encephalitis virus (JEV)", "conditions": "MOI 0.1, six independent experiments"}, "JEV H144A variant": {"test_system": "JEV H144A variant", "type": "cell-based, Japanese encephalitis virus (JEV)", "conditions": "coadministration, BHK-21 cells, Western blot and plaque assay"}, "JEV N154A variant": {"test_system": "JEV N154A variant", "type": "cell-based, Japanese encephalitis virus (JEV)", "conditions": "coadministration, BHK-21 cells, Western blot and plaque assay"}, "HIV gp120": {"test_system": "HIV gp120", "conditions": "cited from earlier work"}, "WT DIII": {"target": "T2, WT DIII (Japanese encephalitis virus, UniProt P27395)", "T2 construct": "The WT DIII expression vector was constructed using pET-22b(+) and preserved in our laboratory; pET-22b(+) normally gives a C-terminal His6); made in house; host or cells: E. coli BL21(DE3), pET-22b(+)", "assay": "Binding affinity, biolayer interferometry, WT DIII", "parameters": "species or system Japanese encephalitis virus (JEV)", "conditions": "Octet QK, DIII immobilized, RC-101 200, 100, 50 nM, 1:1 binding model"}, "ZIKV NS2B-NS3pro": {"target": "T3, ZIKV NS2B-NS3pro (Zika virus, UniProt A0A024B7W1)", "T3 construct": "the NS2B fragments were amplified by PCR; made in house; host or cells: E. coli BL21(DE3), pET28a", "assay": "Proteolytic activity of NS2B-NS3 protease", "type": "biochemical"}, "[2]": {"test_system": "herpes simplex virus 1/2 (HSV-1/2) glycoprotein", "conditions": "cited from earlier work"}, "JEV AT31 [3]": {"test_system": "JEV AT31", "assay": "Viral titer reduction (plaque) assay, JEV in U251 cells", "type": "cell-based, Japanese encephalitis virus (JEV)", "conditions": "MOI 0.1, six independent experiments"}, "ZIKV replicon": {"test_system": "ZIKV replicon", "assay": "ZIKV replicon luciferase assay", "type": "cell-based, Zika virus (ZIKV)", "conditions": "BHK-21 cells, three independent experiments"}, "[4]": {"test_system": "influenza virus hemagglutinin", "conditions": "cited from earlier work"}, "DENV NS2B-NS3 protease": {"test_system": "DENV NS2B-NS3 protease", "conditions": "cited from earlier work"}, "DENV-2": {"test_system": "DENV-2", "conditions": "cited from earlier work"}}, "note": "Read-outs that look alike come from different tables or passages of the source. Where no end group is shown, it is not given here."}
{"compound": "CC[C@H](C)[C@@H]1NC(=O)CNC(=O)[C@H](CCCCN)NC(=O)CNC(=O)[C@@H]2CSSC[C@H](NC1=O)C(=O)N[C@@H](CCCNC(=N)N)C(=O)N[C@H]1CSSC[C@H](NC(=O)[C@H](CCCNC(=N)N)NC(=O)[C@@H]3CSSC[C@H](NC(=O)[C@H]([C@@H](C)CC)NC1=O)C(=O)NCC(=O)N[C@@H](CCCNC(=N)N)C(=O)NCC(=O)N[C@@H]([C@@H](C)CC)C(=O)N3)C(=O)N[C@@H]([C@@H](C)CC)C(=O)N2", "note": "[RC-101, retrocyclin-101]", "values": [{"measurement": "prM band (Western blot)", "setting": "JEV; MOI 0.1, 24 h postinfection", "result": "hardly detectable"}, {"measurement": "viral titers decrease", "setting": "JEV; plaque assay", "result": "approximately 3 log units"}, {"measurement": "inhibition of infection, posttreatment", "setting": "MR766 strain", "result": "inhibited MR766 strain infection"}, {"measurement": "approximate IC98 against ZIKV", "setting": "ZIKV; IC98 from dose-response against ZIKV (Fig. 1)", "result": "~50", "unit": "µM"}, {"measurement": "suppression of viral titers, pretreatment", "setting": "ZIKV; Vero cells, RC-101 40 μM for 1 h before infection (-1 to 0 h), ZIKV MOI 0.1, plaque assay", "result": "no suppression of viral titers was observed"}, {"measurement": "inhibitory effect, coadministration", "setting": "ZIKV; Vero cells, RC-101 40 μM with ZIKV MOI 0.1, 0 to 1 h, plaque assay", "result": "significant inhibitory effects"}, {"measurement": "suppression of viral titers, virucidal treatment", "setting": "ZIKV; ZIKV (MOI 2.5) incubated with RC-101 40 μM at 37°C for 1 h, diluted 25-fold to infect Vero cells 1 h, plaque assay", "result": "no suppression of viral titers was observed"}, {"measurement": "resistance of mutant virus to RC-101", "setting": "JEV T410A variant", "result": "robust resistance to RC-101 in all assays"}, {"measurement": "sensitivity of mutant virus to RC-101", "setting": "JEV Q258A variant", "result": "likely had increased sensitivity"}, {"measurement": "virus production reduction", "setting": "ZIKV MR766; 12.5 μM", "result": "approximately 1 log unit"}, {"measurement": "virus production reduction", "setting": "ZIKV MR766; 100 μM", "result": "approximately 7 log units"}, {"measurement": "virus production (plaques)", "setting": "ZIKV PRVABC 59", "result": "few plaques were found"}, {"measurement": "cytotoxicity (cell viability)", "setting": "Vero cells", "result": "marginal response even at 100 μM"}, {"measurement": "decrease of binding affinity, DE mutant versus WT DIII", "setting": "DE mutant DIII", "result": "1 order of magnitude"}, {"measurement": "expression of JEV NS3", "setting": "JEV NS3; JEV AT31 MOI 0.1, 1 h preinfection RC-101, lysates 23 h postinfection", "result": "inhibited in a dose-dependent manner"}, {"measurement": "unprocessed polyprotein precursor (>180 kDa) expression", "setting": "JEV NS3; JEV AT31 MOI 0.1, RC-101 3.125 μM versus 0.78125 μM, 23 h postinfection", "result": "significantly higher"}, {"measurement": "unprocessed polyprotein precursor (>180 kDa) presence", "setting": "JEV NS3; JEV AT31 MOI 0.1, RC-101 0.78125 and 3.125 μM, 23 h postinfection", "result": "present"}, {"measurement": "unprocessed polyprotein precursor (>180 kDa) presence", "setting": "JEV NS3; JEV AT31 MOI 0.1, RC-101 12.5 and 50 μM, 23 h postinfection", "result": "decreased"}, {"measurement": "inhibition of JEV infection (viral titer)", "setting": "JEV AT31 [1]", "result": "robustly inhibited JEV infection"}, {"measurement": "resistance of mutant virus to RC-101", "setting": "JEV DE mutant", "result": "robust resistance to RC-101 in all assays"}, {"measurement": "inhibition of infection by mutant virus", "setting": "JEV H144A variant", "result": "inhibited infections"}, {"measurement": "inhibition of infection by mutant virus", "setting": "JEV N154A variant", "result": "inhibited infections"}, {"measurement": "binding affinity to HIV gp120", "setting": "HIV gp120", "result": "high binding affinity"}, {"measurement": "kinetic dissociation (Kd)", "setting": "WT DIII", "result": 0.000118, "unit": "s⁻¹"}, {"measurement": "resistance of mutant virus to RC-101", "setting": "JEV H319A variant", "result": "resistance to RC-101 at the protein level and in the low-multiplication of infection (MOI) assay"}, {"measurement": "IC50", "setting": "ZIKV NS2B-NS3pro", "result": 7.2, "unit": "µM"}, {"measurement": "binding affinity to HSV-1/2 glycoprotein", "setting": "[2]", "result": "high binding affinity"}, {"measurement": "inhibition of JEV infection (viral titer)", "setting": "JEV AT31 [3]", "result": "robustly inhibited JEV infection"}, {"measurement": "initial translation of replicon RNA (luciferase activity)", "setting": "ZIKV replicon; 2 h postelectroporation", "result": "little effect"}, {"measurement": "luciferase signal (replication)", "setting": "ZIKV replicon; 48 h postelectroporation", "result": "appreciable reduction"}, {"measurement": "binding affinity to influenza virus hemagglutinin", "setting": "[4]", "result": "high binding affinity"}]}
{"compound": "GICRCICGRGICRCICGR (also: bicyclic or more (positions not given here)) [RC-1]", "values": [{"measurement": "inhibition of DENV NS2B-NS3 protease", "setting": "DENV NS2B-NS3 protease", "result": "reported to inhibit DENV NS2B-NS3 protease"}, {"measurement": "inhibition of DENV-2 replication", "setting": "DENV-2", "result": "inhibit DENV-2 replication"}]}
